Measurements: patent US5032593A, “Method of treating bronchoconstriction with 1,3-unsymmetrical straight chain alkyl-substituted 8-phenylxanthines” (priority 1988, dated 1991)
Like-named read-outs stand apart in the source and are kept apart here.

Tests used:
phosphodiesterase = settings: cited from earlier work
A2 - Adenosine receptor = biological target: T1, A2 - Adenosine receptor (Rattus norvegicus, UniProt P30543); experiment: Adenosine receptor binding, [3H]NECA, rat striatum homogenate; settings: read-out: A2 - Adenosine receptor binding, Ki ± s.e.m.
T1 construct: rat striatum homogenate; from tissue; host or cells: rat striatum homogenate
Procedure: A similar procedure utilizing rat striatum homogenate and [^3 H]NECA as ligand was employed to measure A2 -adenosine receptor binding.
The inhibition constants (Ki values) were calculated using EBDA, a log-logit iterative curve fitting program [McPhearson, Comput. Prog.

A1 - Adenosine receptor = biological target: T2, A1 - Adenosine receptor (Rattus norvegicus, UniProt P25099); experiment: Adenosine receptor binding, [3H]cyclohexyladenosine, rat cortical membranes; settings: [3H]CHA, 23° C., pH 7.4, read-out: A1 - Adenosine receptor binding, Ki ± s.e.m.
T2 construct: rat cortical tissue was homogenized in ice cold 50 mM Tris HCl buffer; from tissue; host or cells: rat cerebral cortex membranes
T2 sequence (P25099 1-326): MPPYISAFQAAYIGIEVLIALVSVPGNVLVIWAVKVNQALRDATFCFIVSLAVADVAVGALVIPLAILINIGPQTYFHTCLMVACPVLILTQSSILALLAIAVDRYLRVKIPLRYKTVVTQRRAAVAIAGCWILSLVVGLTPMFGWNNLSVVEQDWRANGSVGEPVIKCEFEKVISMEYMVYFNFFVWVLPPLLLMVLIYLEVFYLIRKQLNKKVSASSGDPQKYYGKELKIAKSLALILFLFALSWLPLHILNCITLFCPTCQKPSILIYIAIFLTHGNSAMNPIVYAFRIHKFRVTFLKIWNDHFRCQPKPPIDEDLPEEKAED
Procedure: Briefly, rat cortical tissue was homogenized in ice cold 50 mM Tris HCl buffer (pH 7.4) using a Brinkman Polytron®. The homogenate was centrifuged at 48,000×g for 10 minutes and the resulting tissue pellet was suspended in fresh cold buffer to yield a tissue concentration of 10 mg (wet weight)/ml. […] Following this incubation, the tissue suspension was centrifuged as before and the resulting pellet was suspended in fresh buffer at a concentration of 7-10 mg tissue (wet weight)/ml. […] Dose-inhibition curves were generated with 10-12 concentrations of the test compound using triplicate incubations. The inhibition constants (Ki values) were calculated using EBDA, a log-logit iterative curve fitting program [McPhearson, Comput. Prog.

[1] = test system: histamine-induced bronchoconstriction; experiment: Reversal of histamine-induced bronchoconstriction in anesthetized guinea pigs; format: in vivo, guinea pig; settings: for ED50: Cavia porcellus, iv, read-out: Reversal of histamine-induced bronchoconstriction, guinea pigs, ED50 ± s.e.m. (N); for Reversal of histamine-induced bronchoconstriction, maximum effect, % (N) ± s.e.m.: maximum percent reversal, at highest dose
Procedure: Adult male guinea pigs, weighing […], were anesthetized with an intraperitoneal injection of urethane (1.5 gm/kg). After a midline neck incision, the carotid artery and jugular vein were cannulated using polyethylene tubing. The trachea was cannulated using a 15 gauge Leuer Stub. Animals were ventilated at a constant rate and volume (55 breaths per minute and 1 ml per […] body weight) using a Harvard Apparatus small animal respirator. Airway pressure was measured from a side port of the tracheal cannula, using a Statham pressure transducer. Airway pressure and blood pressure were recorded using a Gould physiograph. Body temperature was maintained with a Narco temperature control unit.
Baseline airway and blood pressures were recorded for ten minutes. Aerosolized histamine (0.01%) was then delivered to the airways via a DeVilbiss® ultrasonic nebulizer, inserted in-line between the respirator and the animal. After the histamine-induced bronchoconstriction reached a plateau, as evidenced by an increased airway pressure, a dose-response curve was determined for each compound. […] The maximum effect of each compound was determined from the reversal of bronchoconstriction, as the percent decrease in the bronchoconstrictor response, after administration of the highest dose of that compound.
The ED50 values and maximum effect (%) were calculated using SAS and PROBIT computer analysis. […] The maximum effect is the maximum percent reversal of histamine-induced bronchoconstriction produced by the test compound.

[2] = Cardiovascular effects (heart rate, blood pressure) in anesthetized guinea pigs; format: in vivo, guinea pig
Procedure: Aortic blood pressure was recorded from a pressure transducer and the signal was integrated to give a heart rate signal.
Each animal received a single intravenous injection of one compound. […] A group of control animals received injections of vehicle only. Changes in heart rate and blood pressure from pre-injection baseline values produced by drugs or vehicle were compared.

[3] = test system: antigen-induced bronchoconstriction; experiment: Prevention of antigen-induced bronchoconstriction in ovalbumin-sensitized guinea pigs; format: in vivo, guinea pig; settings: 10 mg/kg, i.v., peak airway pressure increase as percent of vehicle animals
Excerpt: Prevention of antigen-induced bronchoconstriction Male Hartley guinea pigs were given two intraperitoneal injections each containing 50 mcg ovalbumin in a 2:1 emulsion of Freund's complete adjuvant and sterile saline, for a total of 100 mcg ovalbumin per animal. At least three weeks post sensitization injection, sensitized guinea pigs (now approximately 400-600 g) were anesthetized with an intraperitoneal injection of urethane. The carotid artery, jugular vein and the trachea were cannulated. […] Airway pressure was measured and aortic blood pressure was monitored. Body temperature was maintained.
Following a stabilization period of approximately ten minutes, drug in vehicle or vehicle alone was administered intravenously in a volume of 1 ml. All drugs were tested at a dose of 10 mg/kg. One minute post injection, ovalbumin (10 mg/ml) was aerosolized into the airway via a DeVilbiss® ultrasonic nebulizer for a thirty minute period. Peak airway pressure attained during this thirty minute period was measured.

Acute toxicity in mice = format: in vivo, mouse; settings: for Acute Toxicity, Approximate lethal dose: i.p.'; for Acute Toxicity (comments): animals showing the side effect
[4] = Emetic effects in ferrets; format: in vivo, ferret; settings: 100 mg/kg
Procedure: Male ferrets, 12-15 weeks old, were fasted overnight prior to experimentation. Animals were given intraperitoneal injections of 100 mg/kg of compound or were dosed with vehicle for controls. Animals were then placed in cages with feed and water and observed for signs of emesis.

[5] = Solubility at the dose intended for the cardiovascular test; format: physicochemical; settings: dose for guinea pig i.v. cardiovascular test
[6] = guinea pigs, i.v., dose required to reverse the histamine response by 50%
[7] = guinea pigs, i.v., 2 × histamine-reversal ED50

T1 sequence (P30543 whole entry): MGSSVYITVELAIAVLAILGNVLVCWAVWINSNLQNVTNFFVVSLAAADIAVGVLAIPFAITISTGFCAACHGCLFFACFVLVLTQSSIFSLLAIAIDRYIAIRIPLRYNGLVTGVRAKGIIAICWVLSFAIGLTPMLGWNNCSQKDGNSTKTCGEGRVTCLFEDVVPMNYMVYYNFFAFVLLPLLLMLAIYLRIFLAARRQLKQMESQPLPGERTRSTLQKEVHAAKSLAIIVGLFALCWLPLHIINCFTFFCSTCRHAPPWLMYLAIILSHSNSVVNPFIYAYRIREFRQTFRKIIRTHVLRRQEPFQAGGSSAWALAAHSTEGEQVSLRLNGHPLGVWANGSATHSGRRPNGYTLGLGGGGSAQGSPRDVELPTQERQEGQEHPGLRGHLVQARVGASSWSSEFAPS

Row | Structure (SMILES) | inhibition of phosphodiesterase (phosphodiesterase) | Ki (A2 - Adenosine receptor) | Ki (A1 - Adenosine receptor) | ED50 [1, 6] | Reversal of histamine-induced bronchoconstriction, maximum effect, % (N) ± s.e.m. ([1]; guinea pigs, i.v.) | % Basal blood pressure (mm Hg) [2, 7] | % Basal heart rate (N) [2, 7] | Prevention of antigen-induced bronchoconstriction, % control [3] | Acute Toxicity, Approximate lethal dose (Acute toxicity in mice; N 3, route head 'p.o.) | Emetic effects, episodes/responder ± s.e. ([4]; ferrets, i.p., 1 hour) | Emetic effects, no. responding / no. tested in 1 hour ([4]; ferrets, i.p., 1 hour) | Acute Toxicity (comments) (Acute toxicity in mice) | Acute Toxicity, Approximate lethal dose (Acute toxicity in mice; second printed line of values, N 6, route head 'p.o.) | ED50 [1] | % Basal blood pressure (mm Hg) ([2]; guinea pig, in vivo, iv) | % Basal heart rate (N) ([2]; guinea pig, in vivo, iv) | Emetic effects, no. responding / no. tested in 1 hour ([4]; in vivo, ip) | solubility at 2 × ED50 [5]
1 | CC(C)Cn1c(=O)n(C)c(=O)c2[nH]cnc21 [IBMX, 3-isobutyl-1-methylxanthine] | potent inhibitors of phosphodiesterase |  |  |  |  |  |  |  |  |  |  |  |  |  |  |  |  | 
2 | CCCn1c(=O)n(C)c(=O)c2[nH]c(-c3ccccc3)nc21 [1-Methyl-3-propyl-8-phenylxanthine, 1-Methyl-3-n-propyl-8-phenylxanthine] |  | 93 ± 10.2 nM | 6.3 ± 0.17 nM | 16.9 ± 2 mg/kg | 56.3 ± 3.2% | 86 ± 10% | 104 ± 4% | 106.5 ± 9.7 % control | > 250 mg/kg |  |  |  |  |  |  |  |  | 
3 | CCCn1c(=O)c2[nH]c(-c3ccccc3)nc2n(C)c1=O [3-Methyl-1-propyl-8-phenylxanthine, 3-Methyl-1-n-propyl-8-phenylxanthine] |  | 553 ± 55.7 nM |  | 2.1 ± 0.4 mg/kg | 79.0 ± 3.4% | 134% | 100 ± 3% | 36.5 ± 2.0 % control | > 500 mg/kg | 2 episodes/responder | 2/8 | sedation 6/6 | 250 to 500 mg/kg |  |  |  |  | 
4 | Cn1c(=O)c2[nH]cnc2n(C)c1=O [Theophylline] |  |  |  |  | 72.8 ± 6.6% | 66 ± 8% | 132 ± 4% |  |  | 10.7 ± 3.7 episodes/responder | 7/8 | seizures 6/6 |  | 35.1 ± 5.3 mg/kg |  |  |  | 
5 | Cn1c(=O)c2[nH]c(-c3ccccc3)nc2n(C)c1=O [1,3-Dimethyl-8-phenylxanthine] |  | 644 ± 144 nM |  |  | 22.0 ± 3.9% |  |  | 71.7 ± 1.6 % control | < 250 mg/kg | 0 episodes/responder |  | sedation 3/3 |  | > 50 mg/kg | 94 ± 22% | 102 ± 9% | 0/4 | 
6 | CCCn1c(=O)c2[nH]c(-c3ccccc3)nc2n(CCC)c1=O [1,3-Dipropyl-8-phenylxanthine] |  | 116 ± 100 nM | 2.75 ± 0.29 nM | > 50 mg/kg | 33.8 ± 8.5% |  |  | 98.1 ± 12.4 % control | > 250 mg/kg |  |  |  |  |  |  |  |  | insoluble
